Results on seven compounds are retold here after ChEMBL document CHEMBL1201862, “PubChem BioAssay data set” (2004).

A short description of data set [1]: growth suppression of PTEN-null colon cells, dose response, cell-based, HCT116 PTEN knockout (AID 1047).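 Further: HCT116 colon tumor cells with PTEN knocked out; cells exposed to compound for 60 hours before readout; potency for loss of cell viability measured by luminescence.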 The format is functional.
Data set [2] is described as follows: growth suppression of beta-catenin-knockout colon cells, dose response, cell-based, HCT116, human colon tumor (AID 1045).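 Further: HCT116 colon tumor cells with beta catenin knocked out; cells exposed to compound for 60 hours.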 Type of data set: functional.
In data set [3] the target is T1, Apoptotic protease-activating factor 1 (Homo sapiens, UniProt O14727).
T1 sequence (O14727 whole entry): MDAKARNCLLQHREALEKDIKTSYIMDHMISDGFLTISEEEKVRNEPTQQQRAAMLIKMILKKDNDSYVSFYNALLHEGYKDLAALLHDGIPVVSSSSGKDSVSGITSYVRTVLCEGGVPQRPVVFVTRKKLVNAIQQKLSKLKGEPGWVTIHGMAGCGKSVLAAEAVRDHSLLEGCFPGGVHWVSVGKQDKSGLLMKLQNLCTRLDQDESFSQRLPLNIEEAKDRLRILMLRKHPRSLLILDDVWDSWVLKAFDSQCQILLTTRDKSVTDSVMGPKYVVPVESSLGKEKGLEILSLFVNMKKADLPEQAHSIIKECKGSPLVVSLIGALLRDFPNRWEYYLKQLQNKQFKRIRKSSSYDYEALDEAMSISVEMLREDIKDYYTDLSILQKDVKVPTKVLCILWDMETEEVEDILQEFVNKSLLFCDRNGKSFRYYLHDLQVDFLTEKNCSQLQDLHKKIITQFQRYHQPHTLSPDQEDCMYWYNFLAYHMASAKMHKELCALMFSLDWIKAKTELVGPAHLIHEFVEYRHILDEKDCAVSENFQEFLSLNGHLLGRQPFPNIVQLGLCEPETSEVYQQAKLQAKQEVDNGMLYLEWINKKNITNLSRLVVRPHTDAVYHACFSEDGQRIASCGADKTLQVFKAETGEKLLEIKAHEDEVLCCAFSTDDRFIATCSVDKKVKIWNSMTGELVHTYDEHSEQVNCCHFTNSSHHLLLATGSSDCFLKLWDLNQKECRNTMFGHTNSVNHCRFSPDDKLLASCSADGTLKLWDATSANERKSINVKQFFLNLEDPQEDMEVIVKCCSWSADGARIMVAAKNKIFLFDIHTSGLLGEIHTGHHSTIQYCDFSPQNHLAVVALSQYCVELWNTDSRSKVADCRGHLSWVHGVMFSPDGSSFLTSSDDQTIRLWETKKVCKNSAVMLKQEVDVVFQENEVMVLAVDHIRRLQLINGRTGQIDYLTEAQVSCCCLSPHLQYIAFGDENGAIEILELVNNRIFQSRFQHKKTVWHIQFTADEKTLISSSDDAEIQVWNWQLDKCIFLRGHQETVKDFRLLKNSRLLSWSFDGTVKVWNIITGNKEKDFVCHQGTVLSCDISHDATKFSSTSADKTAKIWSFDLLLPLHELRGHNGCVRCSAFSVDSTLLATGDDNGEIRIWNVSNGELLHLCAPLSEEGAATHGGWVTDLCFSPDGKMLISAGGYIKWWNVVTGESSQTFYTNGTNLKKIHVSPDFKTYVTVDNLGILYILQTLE
The experiment in a line: activation of Apaf-1 mediated apoptosis – fluorescent, uHTS hits, dose response (AID 588554). Type of data set: functional.

Data set [4] in a line: cytotoxicity in HEK-293T cells, dose response, cytotoxicity control for TCR NF-kB inhibitor project, luminescence, T-cell screen hits (AID 489026).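 Further: cells exposed to compound about 14 hours before the viability readout.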 The format is functional, cell-based.
For data set [5], the target named is T2, Microphthalmia-associated transcription factor (Homo sapiens, UniProt O75030).
T2 sequence (O75030 whole entry): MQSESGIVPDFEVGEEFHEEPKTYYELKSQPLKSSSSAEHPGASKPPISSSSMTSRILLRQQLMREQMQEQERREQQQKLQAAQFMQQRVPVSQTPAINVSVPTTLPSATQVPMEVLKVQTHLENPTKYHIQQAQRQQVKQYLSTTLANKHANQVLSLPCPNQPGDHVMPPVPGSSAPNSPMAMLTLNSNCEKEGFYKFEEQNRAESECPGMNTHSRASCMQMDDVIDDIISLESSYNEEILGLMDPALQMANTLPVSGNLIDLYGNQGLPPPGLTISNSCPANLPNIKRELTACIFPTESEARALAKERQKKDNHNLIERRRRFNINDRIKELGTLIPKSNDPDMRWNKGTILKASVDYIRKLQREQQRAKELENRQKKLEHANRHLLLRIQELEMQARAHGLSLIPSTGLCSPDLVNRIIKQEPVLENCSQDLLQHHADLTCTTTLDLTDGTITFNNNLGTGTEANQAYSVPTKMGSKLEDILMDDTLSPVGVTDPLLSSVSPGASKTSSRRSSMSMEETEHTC
The experiment in a line: TRPM1 promoter luciferase signal decrease, dose response, MITF inhibitor project, cell-based, SK-MEL-5, cherry-picked, set 3 (AID 493073).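 Further: SK-MEL-5 melanoma cells with luciferase driven by the MITF target TRPM1 promoter.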 The format is functional.

Data set [6] has as its system HEK293. The experiment in a line: cytotoxicity in HEK293T NF-kB-Luc cells, SAR follow-up, cytotoxicity control for NF-kB activator project, cell-based, resazurin fluorescence (AID 493251). The format is functional. As to conditions: Homo sapiens.
The subject of another data set is Jurkat. The experiment in a line: SAR Analysis of small molecule inhibitors of T-cell specific antigen receptor-induced NF-kB activation in a Jurkat cell line using a luminescence assay - Set 2. [Related pubchem assays (depositor defined):AID435003, AID435012, AID465]. The format is functional, cell-based. As to conditions: Homo sapiens.
The subject of data set [7] is HEK293. The experiment in a line: SAR Analysis of small molecule inhibitors of T-cell specific antigen receptor-induced NF-kB activation in a HEK-293T cell line using a luminescence assay - Set 2. [Related pubchem assays (depositor defined):AID435003, AID435012, AID489026]. Type of data set: functional, cell-based. As to conditions: Homo sapiens.
Data set [8] has as its target T3, Mannose-6-phosphate isomerase (Homo sapiens, UniProt P34949).
T3 sequence (P34949 whole entry): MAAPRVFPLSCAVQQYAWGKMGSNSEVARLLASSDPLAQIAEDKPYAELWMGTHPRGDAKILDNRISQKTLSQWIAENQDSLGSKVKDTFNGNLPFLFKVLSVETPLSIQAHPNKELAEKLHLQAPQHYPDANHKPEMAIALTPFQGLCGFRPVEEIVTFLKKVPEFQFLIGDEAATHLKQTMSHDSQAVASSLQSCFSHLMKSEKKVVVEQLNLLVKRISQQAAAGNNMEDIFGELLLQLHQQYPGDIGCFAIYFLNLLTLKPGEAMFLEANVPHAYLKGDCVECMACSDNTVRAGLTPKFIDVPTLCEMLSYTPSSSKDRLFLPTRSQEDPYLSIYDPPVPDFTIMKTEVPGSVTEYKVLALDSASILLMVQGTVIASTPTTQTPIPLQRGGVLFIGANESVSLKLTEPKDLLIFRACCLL
The experiment in a line: PMI enzyme inhibitors, confirmation, biochemical, fluorescence intensity (AID 1535).

The next data set addresses Phosphomannomutase 2 (Homo sapiens, UniProt O15305). The experiment in a line: Counter screen SAR assay for PMM2 inhibitors via a fluorescence intensity assay. [Related pubchem assays (depositor defined):AID1545, AID1574].
In data set [9] the target is T4, Cytochrome P450 2D6 (Homo sapiens, UniProt P10635).
T4 sequence (P10635 whole entry): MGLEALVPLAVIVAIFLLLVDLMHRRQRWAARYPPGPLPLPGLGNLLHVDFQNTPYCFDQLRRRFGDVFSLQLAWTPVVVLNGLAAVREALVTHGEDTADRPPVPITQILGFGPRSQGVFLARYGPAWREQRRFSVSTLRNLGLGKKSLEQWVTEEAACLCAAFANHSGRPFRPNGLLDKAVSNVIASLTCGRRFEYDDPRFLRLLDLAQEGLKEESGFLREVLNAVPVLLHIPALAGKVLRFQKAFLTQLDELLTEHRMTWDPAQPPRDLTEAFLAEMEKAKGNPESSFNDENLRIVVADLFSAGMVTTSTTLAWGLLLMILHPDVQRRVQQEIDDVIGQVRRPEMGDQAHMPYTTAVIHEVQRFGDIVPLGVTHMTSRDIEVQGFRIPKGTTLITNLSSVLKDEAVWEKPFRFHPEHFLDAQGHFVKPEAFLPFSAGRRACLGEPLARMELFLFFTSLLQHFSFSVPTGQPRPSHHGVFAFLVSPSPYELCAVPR
For data set [10], the target named is T4, Cytochrome P450 2D6. This is another data set of the same source.
Another data set deals with T5, Cytochrome P450 1A2 (Homo sapiens, UniProt P05177).
T5 sequence (P05177 whole entry): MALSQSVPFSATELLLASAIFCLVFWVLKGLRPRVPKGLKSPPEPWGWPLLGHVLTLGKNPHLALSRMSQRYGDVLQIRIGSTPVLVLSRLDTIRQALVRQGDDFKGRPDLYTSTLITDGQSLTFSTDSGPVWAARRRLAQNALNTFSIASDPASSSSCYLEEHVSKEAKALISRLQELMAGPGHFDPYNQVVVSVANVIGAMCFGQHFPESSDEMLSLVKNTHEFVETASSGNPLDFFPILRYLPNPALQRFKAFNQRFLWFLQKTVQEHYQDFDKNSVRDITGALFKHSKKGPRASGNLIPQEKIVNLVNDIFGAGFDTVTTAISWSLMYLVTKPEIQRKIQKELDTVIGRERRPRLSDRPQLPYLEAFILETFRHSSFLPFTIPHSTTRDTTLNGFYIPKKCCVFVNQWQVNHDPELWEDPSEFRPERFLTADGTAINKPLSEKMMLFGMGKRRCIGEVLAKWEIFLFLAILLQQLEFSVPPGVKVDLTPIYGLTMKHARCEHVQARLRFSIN

The next data set deals with Cytochrome P450 2C19 (Homo sapiens, UniProt P33261). The experiment in a line: Cytochrome panel assay with activity outcomes. Panel member name: p450-cyp2c19 Compounds with AC50 equal or less than 10 uM are considered active. As to conditions: read-out: AC50. The format is functional.
Chain of Cytochrome P450 2C19 (P33261 whole entry): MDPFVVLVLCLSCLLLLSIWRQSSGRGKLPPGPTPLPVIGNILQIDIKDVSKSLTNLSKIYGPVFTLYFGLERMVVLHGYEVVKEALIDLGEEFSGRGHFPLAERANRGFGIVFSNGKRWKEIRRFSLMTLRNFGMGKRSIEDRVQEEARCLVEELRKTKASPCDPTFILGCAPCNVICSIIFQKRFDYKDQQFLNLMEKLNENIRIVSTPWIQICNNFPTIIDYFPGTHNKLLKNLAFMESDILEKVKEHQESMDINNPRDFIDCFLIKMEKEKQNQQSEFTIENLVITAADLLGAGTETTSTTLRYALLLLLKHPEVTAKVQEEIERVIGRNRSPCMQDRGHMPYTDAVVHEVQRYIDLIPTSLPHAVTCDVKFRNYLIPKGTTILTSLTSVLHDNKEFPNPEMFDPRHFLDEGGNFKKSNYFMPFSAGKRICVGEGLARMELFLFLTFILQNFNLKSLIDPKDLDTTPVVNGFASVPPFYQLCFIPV
Data set [11] is described as follows: growth induction of Burl-1 ts yeast mutant, dose response, counter-screen for SUMOylation pathway inhibitor project, whole organism, S. cerevisiae, luminescence (AID 463199). Type of data set: functional.
A further data set deals with Hexokinase-1 (Homo sapiens, UniProt P19367). The experiment in a line: HK1 enzyme inhibition by HKDC1 hits, SAR follow-up, selectivity assay for HKDC1 inhibitor project, biochemical, set 2, resazurin fluorescence coupled readout (AID 588356). Type of data set: functional.
Chain of Hexokinase-1 (P19367 whole entry): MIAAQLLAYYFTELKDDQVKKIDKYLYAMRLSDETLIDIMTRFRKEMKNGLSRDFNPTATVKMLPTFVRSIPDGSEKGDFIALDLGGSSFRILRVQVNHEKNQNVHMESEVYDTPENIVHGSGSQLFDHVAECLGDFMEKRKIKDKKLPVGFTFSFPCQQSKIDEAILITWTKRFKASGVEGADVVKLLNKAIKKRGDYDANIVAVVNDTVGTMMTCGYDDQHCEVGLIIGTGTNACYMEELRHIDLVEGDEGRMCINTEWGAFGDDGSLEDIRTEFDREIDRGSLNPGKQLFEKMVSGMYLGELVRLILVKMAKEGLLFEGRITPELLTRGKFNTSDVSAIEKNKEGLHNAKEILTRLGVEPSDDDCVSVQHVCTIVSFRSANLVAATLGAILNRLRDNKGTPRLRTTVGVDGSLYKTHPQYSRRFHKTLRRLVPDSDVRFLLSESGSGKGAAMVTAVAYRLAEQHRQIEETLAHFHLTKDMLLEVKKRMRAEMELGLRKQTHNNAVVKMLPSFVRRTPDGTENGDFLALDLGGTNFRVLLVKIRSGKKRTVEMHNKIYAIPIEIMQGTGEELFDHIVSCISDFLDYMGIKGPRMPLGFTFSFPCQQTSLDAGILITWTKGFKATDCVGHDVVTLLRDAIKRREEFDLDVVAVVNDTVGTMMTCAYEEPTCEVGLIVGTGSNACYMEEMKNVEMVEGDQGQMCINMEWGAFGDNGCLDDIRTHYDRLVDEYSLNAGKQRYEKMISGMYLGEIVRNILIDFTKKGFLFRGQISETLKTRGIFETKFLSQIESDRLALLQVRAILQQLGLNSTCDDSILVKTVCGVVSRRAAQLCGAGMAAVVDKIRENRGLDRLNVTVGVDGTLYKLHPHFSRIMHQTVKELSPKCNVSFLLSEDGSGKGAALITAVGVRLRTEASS
In the next data set the target is T6, Hexokinase HKDC1 (Homo sapiens, UniProt Q2TB90).
T6 sequence (Q2TB90 whole entry): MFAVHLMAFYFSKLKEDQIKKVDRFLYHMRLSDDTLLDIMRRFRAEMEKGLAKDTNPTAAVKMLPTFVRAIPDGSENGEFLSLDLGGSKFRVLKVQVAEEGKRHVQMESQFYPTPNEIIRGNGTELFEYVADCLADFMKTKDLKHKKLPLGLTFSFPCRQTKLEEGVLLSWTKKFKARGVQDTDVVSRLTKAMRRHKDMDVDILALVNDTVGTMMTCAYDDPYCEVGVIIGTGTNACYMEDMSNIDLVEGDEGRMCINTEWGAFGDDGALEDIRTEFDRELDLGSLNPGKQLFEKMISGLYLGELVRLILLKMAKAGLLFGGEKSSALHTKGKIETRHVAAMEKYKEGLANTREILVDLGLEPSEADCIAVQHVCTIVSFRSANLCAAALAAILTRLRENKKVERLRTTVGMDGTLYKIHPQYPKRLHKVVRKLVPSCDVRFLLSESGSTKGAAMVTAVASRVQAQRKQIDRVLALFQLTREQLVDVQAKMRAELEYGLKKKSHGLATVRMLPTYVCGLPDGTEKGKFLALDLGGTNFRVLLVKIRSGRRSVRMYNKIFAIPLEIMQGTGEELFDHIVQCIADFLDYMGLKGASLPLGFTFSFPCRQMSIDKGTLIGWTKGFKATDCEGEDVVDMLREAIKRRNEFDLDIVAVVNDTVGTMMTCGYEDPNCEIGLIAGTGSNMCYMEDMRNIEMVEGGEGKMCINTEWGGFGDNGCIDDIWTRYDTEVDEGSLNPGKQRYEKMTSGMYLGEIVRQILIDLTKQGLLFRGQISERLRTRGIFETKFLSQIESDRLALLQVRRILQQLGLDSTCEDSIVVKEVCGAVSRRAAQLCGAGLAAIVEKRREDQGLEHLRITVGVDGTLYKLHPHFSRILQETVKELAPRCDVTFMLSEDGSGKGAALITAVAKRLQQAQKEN
The experiment in a line: HKDC1 hexokinase inhibitors, SAR follow-up, biochemical, set 2 (AID 588355). Type of data set: functional.

Where “and” joins values, the source holds several entries; their conditions need not be identical. Identical values can stand only once. Calls of active or inactive are those of the source.

Chain of Phosphomannomutase 2 (O15305 whole entry): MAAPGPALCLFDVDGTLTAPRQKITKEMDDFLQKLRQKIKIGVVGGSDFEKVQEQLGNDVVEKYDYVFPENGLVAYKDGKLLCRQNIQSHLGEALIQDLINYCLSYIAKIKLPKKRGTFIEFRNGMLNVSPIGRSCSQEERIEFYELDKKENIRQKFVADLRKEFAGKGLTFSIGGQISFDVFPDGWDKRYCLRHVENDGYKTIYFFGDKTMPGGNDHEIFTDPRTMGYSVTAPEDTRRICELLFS

Take `CCOc1ccc(C(=O)/C=C/Nc2ccc(S(=O)(=O)N=C(N)N)cc2)cc1`: the EC50 was 16.3 µM (active) in data set [1], 21.8 µM (active) in data set [2] and 6.28 µM (active) in data set [3].
As to `Cc1cc(C)cc(NC(=O)c2ccc([N+](=O)[O-])o2)c1`, the IC50 in data set [4] was > 80 µM (inactive); in the data set with HEK293 [6], 43.4 µM (inactive); in the data set with Jurkat, 0.85 µM (active); with HEK293 [7], 21.8 µM (inactive). The AC50 in data set [5] is 16.6 µM (active).
Regarding `OCc1ccccc1/N=c1\ssnc1Cl`, the IC50 is 35.8 µM (active) in data set [8] and > 100 µM (inactive) at Phosphomannomutase 2.
As to `Cc1ncc([N+](=O)[O-])n1CC(C)O` (stereo not drawn) [SECNIDAZOLE], the AC50 result on Cytochrome P450 2D6 [9] is “inconclusive”.
For `Cc1cccc(C)c1N=C1NCCCS1` [XYLAZINE], the AC50 at Cytochrome P450 2D6 [10] was 39.8 µM (inconclusive) and 10 µM (inconclusive); on Cytochrome P450 1A2 it was “inactive”.
In the case of `Cc1ccc(S(=O)(=O)N2CCOCC2)cc1NC(=O)COC(=O)CCC(=O)c1cccs1`, the results for the AC50 (on Cytochrome P450 2C19; in [11]; on Cytochrome P450 2D6 [10]) were 39.8 µM (inconclusive), 87.5 µM (active) and 31.6 µM (inconclusive), respectively.
As for `COc1cc2c(cc1OC)-c1cc(NCCN(C)C)nc(=O)n1CC2`, the IC50 at Hexokinase-1 and at Hexokinase HKDC1 was > 80 µM (inactive) throughout.
